Assay results: PubChem BioAssay AID1963443 (Molecular Pharmacology Branch, DTP, NCI, 2024)

Test system: MDA-MB-231 complex spheroids, growth inhibition
Assay: Anticancer human tumor MDA-MB-231 cell line growth inhibition [Asc];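 also: spheroids exposed to compounds for 7 days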
Settings: for IC50: curve of first compound; for viability, T/C: stronger effect = lower value
Method in brief: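 Spheroid model: tumor line + HUVEC + hMSC. Single agents and combinations; top conc. at/near clinical Cmax (10 microM if undetermined), half-log dilutions. DMSO stocks at 800-fold test concentration.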

What does the source list for `C#Cc1c(F)ccc2cc(O)cc(-c3ncc4c(N5CC6CCC(C5)N6)nc(OCC56CCCN5CC(F)C6)nc4c3F)c12` (stereo not given) + CCN1C(C(=O)NC23CCC(C(=O)O)(CC2)CC3)C(c2cccc(Cl)c2F)C2(C(=O)Nc3cc(Cl)ccc32)C12CCCCC2?
IC50 (second compound 0.03 µM): > 10 µM; IC50 (second compound 0.0949 µM): 8.44 µM; IC50 (second compound 0.3 µM): > 10 µM; IC50 (second compound 0.949 µM): > 10 µM; IC50 (second compound 3 µM): 0.898 µM; viability, T/C (second compound 0.03 µM, first compound 0.0316 µM): 96.8%; viability, T/C (second compound 0.03 µM, first compound 0.1 µM): 96.5%; viability, T/C (second compound 0.03 µM, first compound 0.316 µM): 92.8%; viability, T/C (second compound 0.03 µM, first compound 1 µM): 74.9%; viability, T/C (second compound 0.03 µM, first compound 3.16 µM): 63.8%; viability, T/C (second compound 0.03 µM, first compound 10 µM): 55.1%; viability, T/C (second compound 0.0949 µM, first compound 0.0316 µM): 108%; viability, T/C (second compound 0.0949 µM, first compound 0.1 µM): 98.2%; viability, T/C (second compound 0.0949 µM, first compound 0.316 µM): 94.7%; viability, T/C (second compound 0.0949 µM, first compound 1 µM): 70.2%; viability, T/C (second compound 0.0949 µM, first compound 3.16 µM): 59.3%; viability, T/C (second compound 0.0949 µM, first compound 10 µM): 48.1%; viability, T/C (second compound 0.3 µM, first compound 0.0316 µM): 106%; viability, T/C (second compound 0.3 µM, first compound 0.1 µM): 107%; viability, T/C (second compound 0.3 µM, first compound 0.316 µM): 98.8%; viability, T/C (second compound 0.3 µM, first compound 1 µM): 72.5%; viability, T/C (second compound 0.3 µM, first compound 3.16 µM): 59.3%; viability, T/C (second compound 0.3 µM, first compound 10 µM): 48.5%; viability, T/C (second compound 0.949 µM, first compound 0.0316 µM): 108%; viability, T/C (second compound 0.949 µM, first compound 0.1 µM): 106%; viability, T/C (second compound 0.949 µM, first compound 0.316 µM): 103%; viability, T/C (second compound 0.949 µM, first compound 1 µM): 66.2%; viability, T/C (second compound 0.949 µM, first compound 3.16 µM): 61.5%; viability, T/C (second compound 0.949 µM, first compound 10 µM): 45.8%; viability, T/C (second compound 3 µM, first compound 0.0316 µM): 96.7%; viability, T/C (second compound 3 µM, first compound 0.1 µM): 90.5%; viability, T/C (second compound 3 µM, first compound 0.316 µM): 68.8%; viability, T/C (second compound 3 µM, first compound 1 µM): 47.4%; viability, T/C (second compound 3 µM, first compound 3.16 µM): 43.5%; viability, T/C (second compound 3 µM, first compound 10 µM): 36.4%

For `COc1c(OCCCN2CCOCC2)ccc2c3n(c(=NC(=O)c4cnc(N)nc4)nc12)CCN3` + Cc1c(S(C)(=O)=O)c(-c2cc(F)cc(N3CCN(c4ccc(NS(=O)(=O)c5ccc(NC(CCN6CCC(C(=O)OCCCP(=O)(O)O)CC6)CSc6ccccc6)c(S(=O)(=O)C(F)(F)F)c5)cc4)CC3)c2)c(-c2ccc(Cl)cc2)n1C(C)C, which IC50 (second compound 0.1 µM) is on record?
The IC50 was 0.0954 µM.

What about the IC50 (second compound 0.316 µM) of the same compound?
Its IC50 is 0.0729 µM.

And the IC50 (second compound 1 µM)?
The IC50 was 0.0642 µM.

And the IC50 (second compound 3.16 µM)?
Its IC50 is 0.0445 µM.

And the IC50 (second compound 10 µM)?
The IC50 was 0.049 µM.

And the viability, T/C (second compound 0.1 µM, first compound 0.00316 µM)?
The viability, T/C was 85.8%.

And the viability, T/C (second compound 0.1 µM, first compound 0.01 µM)?
Its viability, T/C is 85.2%.

What about the viability, T/C (second compound 0.1 µM, first compound 0.0316 µM) of the same compound?
The viability, T/C was 67.7%.

And the viability, T/C (second compound 0.1 µM, first compound 0.1 µM)?
Its viability, T/C is 49.3%.

What about the viability, T/C (second compound 0.1 µM, first compound 0.316 µM) of the same compound?
The viability, T/C was 31.3%.

And the viability, T/C (second compound 0.1 µM, first compound 1 µM)?
Its viability, T/C is 20.1%.

What about the viability, T/C (second compound 0.316 µM, first compound 0.00316 µM) of the same compound?
The viability, T/C was 94.6%.

What about the viability, T/C (second compound 0.316 µM, first compound 0.01 µM) of the same compound?
Its viability, T/C is 81.1%.

What about the viability, T/C (second compound 0.316 µM, first compound 0.0316 µM) of the same compound?
Its viability, T/C is 63%.

And the viability, T/C (second compound 0.316 µM, first compound 0.1 µM)?
The viability, T/C was 47%.

And the viability, T/C (second compound 0.316 µM, first compound 0.316 µM)?
The viability, T/C was 24.3%.

And the viability, T/C (second compound 0.316 µM, first compound 1 µM)?
The viability, T/C was 12.1%.

What about the viability, T/C (second compound 1 µM, first compound 0.00316 µM) of the same compound?
Its viability, T/C is 94.8%.

What about the viability, T/C (second compound 1 µM, first compound 0.01 µM) of the same compound?
Its viability, T/C is 85.1%.

And the viability, T/C (second compound 1 µM, first compound 0.0316 µM)?
The viability, T/C was 66%.

And the viability, T/C (second compound 1 µM, first compound 0.1 µM)?
Its viability, T/C is 40.8%.

And the viability, T/C (second compound 1 µM, first compound 0.316 µM)?
Its viability, T/C is 17.6%.

What about the viability, T/C (second compound 1 µM, first compound 1 µM) of the same compound?
The viability, T/C was 8.74%.

What about the viability, T/C (second compound 3.16 µM, first compound 0.00316 µM) of the same compound?
The viability, T/C was 88.1%.

And the viability, T/C (second compound 3.16 µM, first compound 0.01 µM)?
Its viability, T/C is 84.2%.

What about the viability, T/C (second compound 3.16 µM, first compound 0.0316 µM) of the same compound?
The viability, T/C was 54.6%.

And the viability, T/C (second compound 3.16 µM, first compound 0.1 µM)?
The viability, T/C was 32.8%.

What about the viability, T/C (second compound 3.16 µM, first compound 0.316 µM) of the same compound?
Its viability, T/C is 12.1%.

What about the viability, T/C (second compound 3.16 µM, first compound 1 µM) of the same compound?
Its viability, T/C is 5.37%.

What about the viability, T/C (second compound 10 µM, first compound 0.00316 µM) of the same compound?
The viability, T/C was 90.3%.

What about the viability, T/C (second compound 10 µM, first compound 0.01 µM) of the same compound?
Its viability, T/C is 85.1%.

What about the viability, T/C (second compound 10 µM, first compound 0.0316 µM) of the same compound?
The viability, T/C was 59.8%.

And the viability, T/C (second compound 10 µM, first compound 0.1 µM)?
The viability, T/C was 32.5%.

And the viability, T/C (second compound 10 µM, first compound 0.316 µM)?
The viability, T/C was 10.2%.

And the viability, T/C (second compound 10 µM, first compound 1 µM)?
Its viability, T/C is 3.64%.
